A short description of data set [1]: HMF distribution between organic extraction solvent and aqueous phase. The data set is classed as physicochemical. Conditions: 30 wt % fructose, B(OH)3 and NaCl, organic:aqueous 4:1, 150° C., time not given. The protocol:
An aqueous solution containing 30 wt % fructose (3 mL, 5.7 mmol) was mounted in an Ace vial pressure tube (stable to ˜20 Bar) and solid B(OH)3 (0.3 g, 5 mmol) and NaCl (0.15 g, 3 mmol) were added to the solution. Different organic extraction solvent were added resulting in a organic:aqueous volume ratio of 4:1. The tube with the reaction mixture was placed in a preheated oil bath for a specified time under magnetic stirring (420 rpm) at a 150° C. (reaction times were measured after a stable oil bath temperature had been reached). After the reaction, the tube was removed from the oil bath and cooled to room temperature before a sample was taken for analysis. A sample of the reaction mixture was collected and filtered through a syringe filter (0.45 μm PTFE), mixed with an internal standard (i-PrOH) and analyzed via HPLC.
The R value indicated in table 10 is the HMF distribution obtained between the MIBK phase and the aqueous phase, i.e. [HMF]MIBK/[HMF]aq.

Data set [2] is described as follows: HMF distribution between MIBK phase and aqueous phase with different salts and boric acid. The data set is classed as physicochemical. The note with it: 30 wt % fructose, B(OH)3 0.3 g and salt 3 mmol (anion) in 3 mL, MIBK:aqueous 4:1, 150° C. 45 min. As to the method:
An aqueous solution containing 30 wt % fructose (3 mL, 5.7 mmol) was mounted in an Ace vial pressure tube (stable to ˜20 Bar) and solid B(OH)3 (0.3 g, 5 mmol) and solid salt (3 mmol with respect to the anion) were added to the solution. MIBK was added as extraction solvent so that an organic:aqueous volume ratio of 4:1 was obtained. The tube with the reaction mixture was placed in a preheated oil bath for a specified time under magnetic stirring (420 rpm) at a 150° C. for 45 min (reaction times were measured after a stable oil bath temperature had been reached). After the reaction, the tube was removed from the oil bath and cooled to room temperature before a sample was taken for analysis. A sample of the reaction mixture was collected and filtered through a syringe filter (0.45 μm PTFE), mixed with an internal standard (i-PrOH) and analyzed via HPLC.
The R value indicated in table 9 is the HMF distribution obtained between the MIBK phase and the aqueous phase, i.e. [HMF]MIBK/[HMF]aq

Data set [3] concerns the target immobilized glucose isomerase (Sweetzyme™) (Streptomyces murinus, UniProt P37031). Conditions: for glucose isomerase performance at high salt concentration: as shown in example 12; for stability of Sweetzyme™ in the presence of the salt: conclusion of example 12.
Protocol: 3 gram immobilized glucose isomerase (Sweetzyme™) was loaded in a lab-scale column heated to 60° C. and a substrate flow of 50 gram/hour was applied. […] Samples were collected on a regular basis for HPLC analysis and the enzyme activity was calculated according to the following equation (Jorgensen, O. B., et al., Starch-Starke, 1988. 40(8), 307-313):
[formula] where: A: specific activity of immobilized enzyme (micromol/min/g enzyme) (IGIU/g: Immobilized Glucose Isomerase Units/g) 0.926: unit conversion factor Fw: Flow rate of syrup (g/h) w: Weight of enzyme (g) DP1: Inlet % of (glucose+fructose) in dry substance (100 at analytical conditions) DS: Dry substance content (%) X: Conversion=outlet % fructose/DP1 Xi: inlet % fructose/DP1 Xe: X at equilibrium (0.51 at 60° C.) DP1, Xi and Xe were assumed constant with following values: DP1: 99.7 Xi: 0 Xe: 0.5078

Where two headings read alike, the source gives them in different places.

immobilized glucose isomerase (Sweetzyme™), sequence (P37031 whole entry): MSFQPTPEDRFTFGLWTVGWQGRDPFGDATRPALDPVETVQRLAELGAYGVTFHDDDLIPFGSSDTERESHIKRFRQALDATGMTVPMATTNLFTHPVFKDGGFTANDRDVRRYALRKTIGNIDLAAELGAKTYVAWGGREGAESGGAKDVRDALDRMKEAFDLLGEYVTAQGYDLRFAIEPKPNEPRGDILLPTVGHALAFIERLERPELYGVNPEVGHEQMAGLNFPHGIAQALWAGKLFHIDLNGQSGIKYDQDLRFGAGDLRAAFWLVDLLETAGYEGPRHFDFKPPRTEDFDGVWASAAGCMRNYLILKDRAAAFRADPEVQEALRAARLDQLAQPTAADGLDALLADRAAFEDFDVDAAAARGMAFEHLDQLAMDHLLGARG

Turning to `CCC(C)O` (stereo not shown) [2-BuOH, 2-butanol], the R-value in data set [1] was determined as 2.3.
In the case of `[Cl][Al]([Cl])[Cl]` [AlCl3, aluminum chloride], the “R value (MIBK:aq)” value in data set [2] came out at 1.1.
Still for that read-out and setting: then `[Cl][Fe]([Cl])[Cl]` [FeCl3], with 1.1; and `O=S(=O)([O-])[O-].[K+].[K+]` [K2SO4, potassium sulphate], with 1.5.
Take `[Br-].[K+]` [KBr, potassium bromide]: in data set [2], the “R value (MIBK:aq)” value is recorded as 0.9.
In the case of `[Cl-].[K+]` [KCl, potassium chloride], the “R value (MIBK:aq)” value in data set [2] came to 1.0. In addition, the Activity in data set [3] (Column 4: 63.78 g/l KCl, time 18.17 h) amounted to 398.12 IGIU/g; in data set [3] (Column 4: 63.78 g/l KCl, time 46.17 h), 410.62 IGIU/g; in data set [3] (Column 4: 63.78 g/l KCl, time 66.67 h), 411.97 IGIU/g; in data set [3] (Column 4: 63.78 g/l KCl, time 138.67 h), 415.42 IGIU/g; in data set [3] (Column 4: 63.78 g/l KCl, time 163.50 h), 429.63 IGIU/g; in data set [3] (Column 4: 63.78 g/l KCl, time 211.50 h) it was 448.90 IGIU/g. The Activity is recorded as 469.08 IGIU/g in data set [3] (Column 4: 63.78 g/l KCl, time 233.83 h); 468.47 IGIU/g in data set [3] (Column 4: 63.78 g/l KCl, time 309.25 h); 469.21 IGIU/g in data set [3] (Column 4: 63.78 g/l KCl, time 331.42 h); 443.80 IGIU/g in data set [3] (Column 4: 63.78 g/l KCl, time 378.83 h); 430.17 IGIU/g in data set [3] (Column 4: 63.78 g/l KCl, time 474.42 h); 428.76 IGIU/g in data set [3] (Column 4: 63.78 g/l KCl, time 498.33 h). Moreover, the Activity in data set [3] (Column 4: 63.78 g/l KCl, time 522.25 h) is listed as 418.17 IGIU/g; in data set [3] (Column 4: 63.78 g/l KCl, time 547.33 h), 437.40 IGIU/g; in data set [3] (Column 4: 63.78 g/l KCl, time 569.17 h), 438.97 IGIU/g; in data set [3] (Column 4: 63.78 g/l KCl, time 641.92 h) it was 455.49 IGIU/g; in data set [3] (Column 4: 63.78 g/l KCl, time 669.67 h) it was 426.01 IGIU/g. In data set [3], the “glucose isomerase performance at high salt concentration” value (from here on “glucose isomerase performance”) is “comparable with a normal glucose substrate”. Besides, the “stability of Sweetzyme™ in the presence of the salt” value (“stability of Sweetzyme™” below) in data set [3] was “good stability”.
On to `[I-].[K+]` [KI, potassium iodine], for which the “R value (MIBK:aq)” value in data set [2] is reported as 0.7.
Turning to `O=[N+]([O-])[O-].[K+]` [KNO3, potassium nitrate], in data set [2], the “R value (MIBK:aq)” value is on record as 0.8.
For `[Br-].[Li+]` [LiBr, lithium bromide], the “R value (MIBK:aq)” value in data set [2] amounted to 1.0.
For the molecule `[Cl-].[Li+]` [LiCl, lithium chloride], the “R value (MIBK:aq)” value in data set [2] came to 1.1.
As to `O=[N+]([O-])[O-].[Li+]` [LiNO3, lithium nitrate], the “R value (MIBK:aq)” value in data set [2] is recorded as 0.9.
In data set [1], `CC(=O)CC(C)C` [MIBK, methyl-isobutylketone] showed a R-value of 1.0.
Take `[Cl-].[Cl-].[Mg+2]` [MgCl]: in data set [2], the “R value (MIBK:aq)” value is given as 1.1.
With `O=S(=O)([O-])[O-].[Mg+2]` [MgSO4, Magnesium sulfate], the Activity in data set [3] (Column 6: 102.98 g/l MgSO4, time 17.50 h) was determined as 412.41 IGIU/g; in data set [3] (Column 6: 102.98 g/l MgSO4, time 45.50 h), 420.62 IGIU/g; in data set [3] (Column 6: 102.98 g/l MgSO4, time 66.00 h), 419.46 IGIU/g; in data set [3] (Column 6: 102.98 g/l MgSO4, time 138.00 h), 428.95 IGIU/g; in data set [3] (Column 6: 102.98 g/l MgSO4, time 162.83 h) it was 436.79 IGIU/g; in data set [3] (Column 6: 102.98 g/l MgSO4, time 186.83 h) it was 452.92 IGIU/g. The Activity was 465.04 IGIU/g in data set [3] (Column 6: 102.98 g/l MgSO4, time 210.83 h); 424.51 IGIU/g in data set [3] (Column 6: 102.98 g/l MgSO4, time 233.17 h); 370.47 IGIU/g in data set [3] (Column 6: 102.98 g/l MgSO4, time 308.58 h); 366.35 IGIU/g in data set [3] (Column 6: 102.98 g/l MgSO4, time 330.75 h); 324.95 IGIU/g in data set [3] (Column 6: 102.98 g/l MgSO4, time 378.17 h); 306.53 IGIU/g in data set [3] (Column 6: 102.98 g/l MgSO4, time 473.75 h). Besides, the Activity came to 298.41 IGIU/g in data set [3] (Column 6: 102.98 g/l MgSO4, time 497.67 h); 299.60 IGIU/g in data set [3] (Column 6: 102.98 g/l MgSO4, time 521.58 h); 310.87 IGIU/g in data set [3] (Column 6: 102.98 g/l MgSO4, time 568.50 h).
As to `O=S(=O)([O-])[O-].[Na+].[Na+]` [Na2SO4, sodium sulphate], the “R value (MIBK:aq)” value in data set [2] stood at 1.7. The Activity in data set [3] (Column 5: 61.08 g/l Na2SO4, time 17.83 h) is 418.97 IGIU/g; in data set [3] (Column 5: 61.08 g/l Na2SO4, time 45.83 h), 433.23 IGIU/g; in data set [3] (Column 5: 61.08 g/l Na2SO4, time 66.33 h), 432.90 IGIU/g; in data set [3] (Column 5: 61.08 g/l Na2SO4, time 138.33 h), 427.76 IGIU/g; in data set [3] (Column 5: 61.08 g/l Na2SO4, time 163.17 h), 439.97 IGIU/g; in data set [3] (Column 5: 61.08 g/l Na2SO4, time 187.17 h), 449.17 IGIU/g. Further, the Activity in data set [3] (Column 5: 61.08 g/l Na2SO4, time 211.17 h) turned out to be 437.81 IGIU/g; in data set [3] (Column 5: 61.08 g/l Na2SO4, time 233.50 h), 449.65 IGIU/g; in data set [3] (Column 5: 61.08 g/l Na2SO4, time 308.92 h) it was 437.45 IGIU/g; in data set [3] (Column 5: 61.08 g/l Na2SO4, time 331.08 h), 437.38 IGIU/g; in data set [3] (Column 5: 61.08 g/l Na2SO4, time 378.50 h), 429.47 IGIU/g; in data set [3] (Column 5: 61.08 g/l Na2SO4, time 474.08 h) it was 381.79 IGIU/g. For the same molecule, the Activity in data set [3] (Column 5: 61.08 g/l Na2SO4, time 498.00 h) is 387.83 IGIU/g; in data set [3] (Column 5: 61.08 g/l Na2SO4, time 521.92 h), 382.13 IGIU/g; in data set [3] (Column 5: 61.08 g/l Na2SO4, time 547.00 h), 394.91 IGIU/g; in data set [3] (Column 5: 61.08 g/l Na2SO4, time 568.83 h), 393.80 IGIU/g; in data set [3] (Column 5: 61.08 g/l Na2SO4, time 641.58 h) it was 376.25 IGIU/g; in data set [3] (Column 5: 61.08 g/l Na2SO4, time 669.33 h), 370.35 IGIU/g. Further, the “glucose isomerase performance” value in data set [3] is on record as “comparable with a normal glucose substrate”. In data set [3], the “stability of Sweetzyme™” value is “good stability”.
On to `[Br-].[Na+]` [NaBr, sodium bromide], for which, in data set [2], the “R value (MIBK:aq)” value amounted to 0.9.
On to `[Cl-].[Na+]` [NaCl, sodium chloride], for which the “R value (MIBK:aq)” value in data set [2] was determined as 1.0. Further, the Activity in data set [3] (50 g/l NaCl, time 19.25 h) came to 431.74 IGIU/g; in data set [3] (50 g/l NaCl, time 47.25 h), 438.80 IGIU/g; in data set [3] (50 g/l NaCl, time 67.75 h), 438.50 IGIU/g; in data set [3] (50 g/l NaCl, time 139.75 h), 425.49 IGIU/g; in data set [3] (50 g/l NaCl, time 164.58 h), 471.33 IGIU/g; in data set [3] (50 g/l NaCl, time 188.58 h), 469.46 IGIU/g. Also, the Activity in data set [3] (50 g/l NaCl, time 212.58 h) is 451.52 IGIU/g; in data set [3] (50 g/l NaCl, time 234.92 h), 468.84 IGIU/g; in data set [3] (50 g/l NaCl, time 310.33 h), 466.38 IGIU/g; in data set [3] (50 g/l NaCl, time 332.50 h), 468.14 IGIU/g; in data set [3] (50 g/l NaCl, time 379.92 h), 449.12 IGIU/g; in data set [3] (50 g/l NaCl, time 475.50 h) it was 446.72 IGIU/g. The Activity in data set [3] (50 g/l NaCl, time 499.42 h) was determined as 445.83 IGIU/g; in data set [3] (50 g/l NaCl, time 523.33 h), 439.69 IGIU/g; in data set [3] (50 g/l NaCl, time 548.42 h), 436.34 IGIU/g; in data set [3] (50 g/l NaCl, time 570.25 h) it was 436.11 IGIU/g; in data set [3] (50 g/l NaCl, time 643.00 h), 446.01 IGIU/g; in data set [3] (50 g/l NaCl, time 670.75 h), 435.86 IGIU/g. For the same molecule, in data set [3], the “glucose isomerase performance” value is recorded as “further stabilised”. In addition, the “stability of Sweetzyme™” value in data set [3] is “good stability”.
On to `O=[N+]([O-])[O-].[Na+]` [NaNO3, sodium nitrate], for which, in data set [2], the “R value (MIBK:aq)” value is 0.9.

The values above are taken from patent publication US8604225B2, “Method of producing hydroxymethyl-furfural” (Novozymes, A/S, priority 2010, dated 2013).
